What all share (assay): NCI-60 cell line screen, 48 h
Experiment [1] has as its system SK-MEL-5 melanoma.
Experiment [2] relates to ACHN renal.
Experiment [3] relates to HT29 colon.
The test system of experiment [4] is MALME-3M melanoma.
Experiment [5] relates to RPMI-8226 leukemia.
In experiment [6] the test system is SNB-75 CNS.
The subject of experiment [7] is BT-549 breast.
Experiment [8] deals with SN12C renal.
For experiment [9], the system named is COLO 205 colon.
Experiment [10] concerns HL-60(TB) leukemia.

The record followed here is PubChem BioAssay (NCI).

Values joined by “and” are separate entries in the source; they are usually repeats but may differ in a detail not shown here. Equal entries are not always repeated.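 1) Cells in 96-well plates. 2) Compound, 48 h, 5 concentrations. 3) Linear interpolation between surrounding doses. 4) Unreached endpoint = highest concentration. GI50 = concentration required for 50% inhibition of growth. TGI marks complete inhibition of growth.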 Where only a bound is given, the exact number is not on record here.

For the compound `COc1ccc(C(=O)c2cc3c(N)c(C(=O)Nc4cccc(Cl)c4)sc3nc2C)cc1`, the GI50 in experiment [1] is 0.92 µM; in experiment [2] it was 2.12 µM; in experiment [3], 1.2 µM; in experiment [4], 1.28 µM; in experiment [5] it was 1.19 µM; in [6], 0.743 µM. Moreover, the GI50 in experiment [7] was 7.69 µM; in experiment [8] it was 1.96 µM; in experiment [9] it was 1.67 µM; in experiment [10], 1.09 µM. Moreover, the TGI in [1] was 2.6 µM; in [2], > 33.3 µM; in experiment [3], > 33.3 µM; in experiment [4] it was > 33.3 µM; in experiment [5], > 33.3 µM; in experiment [6], 2.75 µM. The TGI in experiment [7], in experiment [8], in experiment [9] and in experiment [10] was > 33.3 µM in each case.
As for `CC(C)Oc1cc(OCC(=O)O)cc(C(=O)N(CCC(N)=O)C(=O)Nc2ccc(C(=O)O)cc2OC(C)C)c1`, the GI50 in [1], in experiment [2], in experiment [3], in experiment [4], in [5] and in experiment [6] was > 100 µM each time. The GI50 in experiment [7], in experiment [8], in experiment [9] and in [10] was > 100 µM throughout. The TGI in experiment [1], in experiment [2], in experiment [3], in [4], in experiment [5] and in experiment [6] was > 100 µM each time. Also, the TGI in experiment [7], in [8], in [9] and in experiment [10] was > 100 µM throughout.
With `C=C1C(=O)O[C@@H]2[C@@H]3O[C@@](C)(CC/C=C(\C)CCC[C@@H]2C)[C@H](O)C[C@@H]13`, the GI50 in experiment [1] is 1.72 µM; in experiment [2] it was 1.59 µM; in experiment [3], 2.41 µM; in experiment [4], 1.76 µM; in [6] it was 2.58 µM; in experiment [7], 1.84 µM. The results for the GI50 in experiment [8] and in experiment [9] were 2.61 µM and 2.06 µM, respectively. The TGI in experiment [1] was 3.49 µM; in experiment [2], 3.11 µM; in experiment [3], 6.71 µM; in [4], 4.11 µM; in [5], > 100 µM; in experiment [6], 13.4 µM. Further, the TGI in experiment [7] turned out to be 4.46 µM; in [8], 10.1 µM; in experiment [9], 4.21 µM; in experiment [10], 8.1 µM.
As for `COc1cc(-c2cc(-c3ccc(N(C)C)cc3)nc(N3CCC(O)CC3)c2C#N)cc(OC)c1OC`, the GI50 in [1] was 0.162 µM; in experiment [2], 0.478 µM; in [3] it was 0.272 µM; in [4] it was 0.475 µM; in experiment [5] it was 0.181 µM; in experiment [6], 0.457 µM. Further, the GI50 in experiment [7] was 0.688 µM; in experiment [8] it was 0.689 µM; in experiment [9], 0.532 µM; in experiment [10], 0.574 µM. Further, the TGI is 0.508 µM in [1]; > 100 µM in [2]; 1.43 µM in experiment [3]; 1.54 µM in [4]; 1.74 µM in [5]; 10.1 µM in experiment [6]. The TGI in experiment [7] is 6.8 µM; in experiment [8] it was 6.44 µM; in [9], 3.42 µM; in experiment [10], 4.13 µM.
Regarding `O=C(Nc1ccc(Cl)cc1)NS(=O)(=O)c1ccc2c(c1)CCC2`, the GI50 in experiment [1] was 20.6 µg/mL; in experiment [2] it was 16.1 µg/mL; in [3], 19.7 µg/mL; in [4], 13.7 µg/mL; in experiment [5], 34.2 µg/mL; in [6], 28.1 µg/mL. Further, the GI50 in [8] was 20.3 µg/mL; in experiment [10], 24.1 µg/mL. For the same compound, the TGI in [1] is > 74 µM and 40 µg/mL; in experiment [2] it was > 100 µM and 49.6 µg/mL; in experiment [3], > 100 µM and 43.4 µg/mL; in experiment [4], > 71.3 µM and 38.2 µg/mL; in experiment [5], 85.7 µM and 150 µg/mL; in experiment [6], > 100 µM and 64.7 µg/mL. The TGI in experiment [7] was > 100 µM; in [8] it was > 100 µM and 43.1 µg/mL; in experiment [9], > 60.8 µM; in [10] it was > 78.2 µM and 65.8 µg/mL.
Consider `Cc1ncc(C(=O)Nc2ccc(CN3CCN(C)CC3)c(C(F)(F)F)c2)cc1C#Cc1c(N)ncc2ccc(C#N)cc12`, for which the GI50 in experiment [1] was 1.1 µM; in [2], 0.293 µM; in experiment [3], 0.0293 µM; in [4], 0.0167 µM; in experiment [5] it was 1.21 µM; in experiment [6] it was 2.38 µM. In addition, the GI50 is 2.71 µM in experiment [7], 1.16 µM in experiment [8], 0.059 µM in experiment [9] and 9.24 µM in experiment [10]. Moreover, the TGI was 8.59 µM in experiment [1]; 3.35 µM in [2]; 7.74 µM in [3]; 0.157 µM in experiment [4]; 9.18 µM in experiment [5]; 8.93 µM in experiment [6]. The TGI is 11.2 µM in [7], 17.9 µM in experiment [8], 8.05 µM in [9] and > 50 µM in experiment [10].
In the case of `CC(=O)NC1(C)CCC(C(C)(C)NC(C)=O)CC1` (stereo not drawn), the TGI in [1], in [2], in experiment [3], in experiment [4], in experiment [5] and in [6] was > 100 µM throughout. Besides, the TGI in experiment [7], in [8], in experiment [9] and in experiment [10] was > 100 µM throughout.
With `CC(C)(O)Cn1c(=O)c(Oc2ccc(F)cc2F)cc2cnc(NC3CCOCC3)nc21`, the GI50 in [1] is > 25 µM; in experiment [2] it was > 25 µM; in experiment [3], > 25 µM; in [4], > 25 µM; in experiment [5] it was > 25 µM; in experiment [6] it was > 22.3 µM. In addition, the GI50 in experiment [7], in experiment [8], in experiment [9] and in experiment [10] was > 25 µM throughout. In addition, the TGI in experiment [1], in [2], in experiment [3], in experiment [4], in [5] and in experiment [6] was > 25 µM throughout. For the same compound, the TGI in [7], in experiment [8], in experiment [9] and in [10] was > 25 µM throughout.
`COc1ccc(C2SC(N)=Nc3c2c(C)nn3C(=O)c2ccncc2)cc1` (stereo not drawn): the TGI in experiment [1], in experiment [2], in experiment [3], in [4], in [5] and in experiment [6] was > 100 µM each time. The TGI in experiment [7], in [8], in [9] and in [10] was > 100 µM each time.
For the compound `O=P(O)(O)OC1C(OP(=O)(O)O)C(OP(=O)(O)O)C(OP(=O)(O)O)C(OP(=O)(O)O)C1OP(=O)(O)O` (stereo not drawn), the GI50 in experiment [1] was > 1560 µM; in experiment [2], > 1700 µM; in [3], > 2000 µM; in experiment [4] it was > 2000 µM; in [5], > 2000 µM; in experiment [6], > 1120 µM. Moreover, the GI50 was > 1690 µM in experiment [7]; > 2000 µM in experiment [8]; > 100 µM and > 500 µM and 1940 µM in [9]; > 2000 µM in [10]. Further, the TGI in experiment [1], in [2], in [3], in [4], in experiment [5] and in experiment [6] was > 2000 µM in each case. Moreover, the TGI in [7], in [8], in experiment [9] and in experiment [10] was > 2000 µM throughout.
`C=C1C(=O)OC(CCCCCCCC)C1C(=O)O` (stereo not drawn): the GI50 is 16.1 µM in [1]; 17.2 µM in experiment [2]; 22.1 µM in experiment [3]; 11.9 µM in [4]; 15 µM in [5]; 16 µM in experiment [6]. In addition, the GI50 in experiment [7] is 12.6 µM; in [8] it was 14.3 µM; in experiment [9], 18.2 µM; in experiment [10], 16.6 µM. Moreover, the TGI in experiment [1] is 29.9 µM; in experiment [2], 31 µM; in experiment [3], 47.2 µM; in experiment [4], 27.3 µM; in [5], 59.7 µM; in experiment [6] it was 34.6 µM. In addition, the TGI in [7] was determined as 26.6 µM; in [8], 28.5 µM; in experiment [9] it was 33.7 µM; in [10] it was 46.4 µM.
With `O=C(Nc1ccc(Cl)c(Cl)c1)Nc1ccc(Cl)c([N+](=O)[O-])c1`, the GI50 in experiment [1] was 2 µM; in [2], 0.8 µM; in experiment [3], 1.24 µM; in experiment [4] it was 0.915 µM; in [5] it was 0.895 µM; in experiment [6], 4.74 µM. For the same compound, the GI50 in experiment [7] was 1.87 µM; in experiment [8], 1.04 µM; in experiment [9] it was 1.12 µM; in experiment [10] it was 0.947 µM. Also, the TGI was determined as 5.08 µM in [1]; 3.06 µM in [2]; 4.82 µM in [3]; 4.96 µM in [4]; 9.47 µM in experiment [5]; 24.4 µM in [6]. Moreover, the TGI is 5.33 µM in experiment [7], 3.94 µM in [8], 4.9 µM in experiment [9] and 14.6 µM in experiment [10].
With `CC/C=C/[C@@H]1C=C[C@@H]2CCC[C@H]2[C@@H]1CC[C@H](O)[C@H](C)N`, the GI50 was 1.69 µM in experiment [1]; 1.59 µM in experiment [2]; 1.46 µM in [3]; 1.35 µM in experiment [4]; 3.07 µM in experiment [5]; 0.538 µM in experiment [6]. For the same compound, the GI50 in experiment [7] is 2.49 µM; in experiment [8], 4.25 µM; in experiment [9], 1.36 µM; in [10], 1.33 µM. Besides, the TGI in experiment [1] is 3.16 µM; in experiment [2], 2.94 µM; in experiment [3], 2.77 µM; in [4] it was 2.95 µM; in experiment [5], 9.79 µM; in experiment [6] it was 5.23 µM. In addition, the TGI in experiment [7] worked out at 8.03 µM; in experiment [8], 18.6 µM; in experiment [9], 2.64 µM; in [10] it was 2.91 µM.
As for `O=C1CCCC1C(=O)Nc1ccc2ccccc2c1` (stereo not drawn), the TGI in experiment [1], in experiment [2], in [3], in experiment [4], in experiment [5] and in experiment [6] was > 100 µM throughout. In addition, the TGI in [7], in experiment [8], in experiment [9] and in experiment [10] was > 100 µM throughout.
Consider `CC(=O)OCC1OC(n2cc(F)c(=O)[nH]c2=O)C(OC(C)=O)C1OC(C)=O` (stereo not drawn), for which the TGI in experiment [1], in experiment [2], in [3], in experiment [4], in experiment [5] and in experiment [6] was > 100 µM each time. The TGI was > 100 µM in [7], > 100 µM in experiment [8], > 83.2 µM in experiment [9] and > 100 µM in [10].
For the compound `Cc1cc(O)c2c(c1)C[C@@H](O)C1=C2C(=O)c2c(O)ccc(OC3CC(O)C(OC4CC(OC5CCC(OC6CC(O)C(OC7CC(OC8CCC(O)C(C)O8)C(O)C(C)O7)C(C)O6)C(C)O5)C(O)C(C)O4)C(C)O3)c2C1=O` (stereo partly drawn), the GI50 in experiment [1] is 1.33 µM and 1.2 µM; in experiment [2] it was 1.52 µM and 0.726 µM; in experiment [3] it was 0.847 µM; in experiment [4], 1 µM and 0.197 µM; in experiment [5], 0.321 µM and 0.483 µM; in experiment [6] it was 1.48 µM and 1.99 µM. In addition, the GI50 in experiment [8] was 0.307 µM and 1.94 µM; in [9], 0.539 µM; in experiment [10] it was 0.112 µM. In addition, the TGI in experiment [3] is 0.318 µM and 2.3 µM; in experiment [7] it was 0.49 µM; in [10] it was 0.134 µM and 0.291 µM.
